The values that follow come from patent US11440916B2, “Selective A2A receptor antagonist” (InxMed (Nanjing) Co., Ltd., priority 2018, dated 2022).

“Also recorded” adds a separate entry of the source. Where two headings read alike, the source gives them in different places. A value given as a limit tells only on which side of the number the result lay.

By Kp is commonly meant the ratio of the level in a tissue or fluid to that in plasma or blood. As usually defined, the AUC(0-t) is exposure summed from dosing to a finite time, without extrapolation to infinity. High values mean more exposure, low ones less exposure. One may read the half-life as how long it takes for the measured level to halve. As usually defined, the bioavailability is dose-corrected exposure relative to a reference, in per cent. As usually defined, the IC50 is the midpoint of a concentration-inhibition curve. A high value points to lower potency.

In data set [1] the test system is B16-F10 cells. Briefly: Mouse melanoma lung metastasis model, oral HZ10126. It counts as in vivo, mice. How it is done: 4.1 Establishment of a Mouse Melanoma Model (6×10^4 Cells/Mouse)
5-week old C58BL/6N mice, half male and half female, were divided into 4 groups, with 10 mice per group. B16-F10 cells were digested and centrifuged, re-suspended in physiological saline and washed once. The cells were counted and adjusted to a cell density of 30×10^4 cells/ml in a volume of 12 ml. 200 μl of the cell suspension was injected into the tail vain of each mouse (Day 1), and the body weight of mice was recorded once every 3 days. On Day 18, the mice were all sacrificed, lungs were removed, and metastasis tumors were counted and weighed. Livers, kidneys and spleens were taken for HE staining to evaluate the toxicity of the drug. The lungs were subjected to immunohistochemistry and stained for CD11b, F4/80 and CD8.
Test drug: HZ10126. 2 mg HZ10126 was dissolved in 80 μl DMSO first, and the resultant solution, while being vortexed, was added dropwise to 10 ml 50% PEG-400 to prepare a 0.2 mg/ml solution.
For the test groups, the HZ10126 solution was intragastrically administered at a dose of 2 mg HZ10126/kg/day. For the control group, an equivalent volume of 50% PGE-400 was administered. From the day of injection of cells, the drug was administered once a day for 18 consecutive days.

The nature of data set [2]: Oral bioavailability, AUC, half-life, plasma, brain and liver concentration in mice at 2 mg/kg. It counts as in vivo. Particulars: for AUC(0-t) / half-life / bioavailability: plasma; for bioavailability: read-out: Absolute bioavailability (oral); for Plasma concentration 4 and 6 hours after oral administration: time point not stated. How it is done:
HZ10126 and other test compounds were each administered to mice at a dose of 2 mg/kg, and the bioavailability, AUC, plasma concentration, level of brain penetration (i.e. brain concentration) and liver concentration after the oral administration were measured and shown in Table 1. The measurement methods are well known to a person skilled in the art.

Data set [3] has as its target A2A receptor (Homo sapiens, UniProt P29274). Briefly: biochemical.
Experimental: The mixture in the Opti-plate was transferred to the [sequence]-96 GF/B filter plate, which was then washed 9 times with Washing Buffer (500 μl/well), and incubated at 55° C. for 10 min. […] A series of concentrations were established for each compound and the CPM values were plotted versus the concentrations. IC50 values were calculated from the curve obtained.
The conditions of data set [4]: reference [2]; cited from earlier work.
The conditions of data set [5]: cited from earlier work.
[6] abbreviates: 2 mg/kg oral, 1 h post administration.
[7] abbreviates: 2 mg/kg, 4 h after oral administration.
The mark [8] stands for this setting: 2 mg/kg, 6 h after oral administration.

With `Nc1nc2c(cnn2CCc2ccc(C(=O)O)cc2)c2nc(-c3ccco3)nn12` [HZ10126], the “Metastases on the lungs versus control group” value in data set [1] (Day 18, 2 mg/kg/day intragastric, once a day for 18 days) is recorded as “obviously less than those in the control group”. The “Inhibitory effect on tumor / tumor metastasis” value in data set [1] (mice, oral 2 mg/kg/day) is on record as “excellent effect of suppressing tumor metastasis; also recorded: excellent inhibitory effect”. For the same compound, the “Liver concentration/Plasma concentration” value in data set [2] (setting [6]) stood at 7; in data set [2] (2 mg/kg oral, 6 h post administration), 24. For the same compound, the “Plasma concentration after oral administration” value in data set [2] (setting [7]) came to 52.0 ± 7.03 ng/mL; in data set [2] (setting [8]), 28.9 ± 9.79 ng/mL. The Brain penetration result in data set [2] (2 mg/kg, oral) is listed as “no detectable brain concentration; also recorded: No penetration”. In addition, the Kp at 1 h in data set [2] (mouse, liver/plasma, 2 mg/kg oral, 1 h post administration) turned out to be 7. Further, the Kp at 6 h in data set [2] (mouse, liver/plasma, 2 mg/kg oral, 6 h post administration) is 24. Moreover, the AUC(0-t) in data set [2] (mouse, 2 mg/kg, oral) came out at 371 ± 62.9 ng·h/mL. This compound showed a half-life in data set [2] (mouse, 2 mg/kg, oral) of 4 to 5 h. Besides, the bioavailability in data set [2] (mouse, 2 mg/kg, oral) stood at 13.4%. Moreover, the IC50 in data set [3] stood at 1.8 nM.
For the compound `Nc1nc2c(cnn2CCc2ccc(OCC(=O)O)cc2)c2nc(-c3ccco3)nn12` [HZ10136], the “Liver concentration/Plasma concentration” value in data set [2] (setting [6]) is 1 h post administration: 2.3. The Brain penetration result in data set [2] (2 mg/kg, oral) is recorded as “No penetration”. Moreover, in data set [2] (2 mg/kg), the “Plasma concentration 4 and 6 hours after oral administration” value (from here on “Plasma concentration 4 and 6 hours”) turned out to be 2.57 ± 0.10 ng/mL. Further, in data set [2] (mouse, 2 mg/kg, oral), the AUC(0-t) came out at 7.42 ± 5.66 ng·h/mL, the half-life was below 0.5 h and the bioavailability worked out at 0.73%. The compound also yielded an IC50 in data set [3] of 1.1 nM.
For `Nc1nc2c(cnn2CCN2CCN(c3ccc(C(=O)O)cc3)CC2)c2nc(-c3ccco3)nn12` [HZ10168], the “Plasma concentration 4 and 6 hours” value in data set [2] (2 mg/kg) came out at 4.50 ± 2.53 ng/mL. The AUC(0-t) in data set [2] (mouse, 2 mg/kg, oral) is 93.9 ± 40.8 ng·h/mL. In data set [3], this compound registered an IC50 of 1.2 nM.
Regarding `CCOC(=O)c1ccc(CCn2ncc3c2nc(N)n2nc(-c4ccco4)nc32)cc1` [HZ10328], the “Plasma concentration after oral administration” value in data set [2] (setting [7]) is 4 h: 24.0 ± 8.02 ng/ml. Moreover, in data set [2] (mouse, 2 mg/kg, oral), the AUC(0-t) turned out to be 233 ± 73.5 ng·h/mL and the half-life was 3.03 h.
As for `Nc1nc2c(cnn2CCc2ccc(CO)cc2)c2nc(-c3ccco3)nn12` [HZ10330], the “Absolute bioavailability (oral)” value in data set [2] (2 mg/kg, oral) is “does not lead to detectable bioavailability”. The “Plasma concentration 4 and 6 hours” value in data set [2] (2 mg/kg) is “Not detected from 1 h after oral administration”. In data set [2] (mouse, 2 mg/kg, oral), the bioavailability stood at 0%.
On to `COCCOc1ccc(N2CCN(CCn3ncc4c3nc(N)n3nc(-c5ccco5)nc43)CC2)cc1` [Preladenant, reference compound], for which the “Plasma concentration after oral administration” value in data set [2] (setting [8]) is listed as 6 h: 6.20 ± 7.27 ng/ml. The compound further showed an AUC(0-t) in data set [2] (mouse, 2 mg/kg, oral) of 285 ± 113 ng·h/mL. In data set [4], the half-life is 2.1 h. The compound further registered an IC50 in data set [3] of 2.5 nM.
Turning to `Nc1nc2c(cnn2CCc2ccccc2)c2nc(-c3ccco3)nn12` [SCH 58261], the half-life entry in data set [5] (after intravenous injection, reference [1]) is “*26.7 min”. Further, in data set [5] (after oral administration), the Oral bioavailability result was “barely any oral bioavailability; also recorded: barely has any bioavailability”. In data set [5] (intraperitoneal injection), the Brain concentration entry is reported as “very low brain concentration” and the Plasma concentration result is reported as “relatively high plasma concentration”. Moreover, the “Half-life in the blood” value in data set [5] (rats, after intravenous injection) was 0.445 h. In addition, the “Plasma concentration 4 and 6 hours” value in data set [2] (2 mg/kg) is given as “No significant meaningful concentration”. Further, in data set [2] (mouse, 2 mg/kg, oral), the bioavailability was around 0%.
